# In US20100022551A1, “TRIMETAZIDINE FOR USE IN THE TREATMENT OF FIBROMYALGIA SYNDROME AND RELATED CONDITIONS” (Mintals Limited Consulco, Consulco House, priority 2006, published 2010):
# “And” between values parts separate entries of the source, which are not always exact repeats. Identical values can stand only once. “Also recorded” adds a separate entry of the source.
# Legend:
# [1] = test system: Human Subject Diagnosed with Fibromyalgia; experiment: Patient history of prior treatment of the fibromyalgia subjects; conditions: for pain relief, prescription analgesics / side effects, prescription analgesics: Examples 1-3, codeine at high dose; for pain relief, OTC analgesics: Examples 1-3, codeine at low dose
# Source text: (§1) Patient History of Prior Treatment: A patient history was taken. Prior treatments targeting pain relief were as follows.
# Prior treatments targeting other symptoms included the following. The subject had taken tegaserod for irritable bowel syndrome. Additional prior therapies included sertraline for depression, and zolpidem for insomnia. The subject has also taken proclorperazine for dizziness.
# Prior treatments targeting other symptoms included the following. The subject had taken tegaserod for irritable bowel syndrome. Additional prior therapies included sertraline for depression, and zolpidem for insomnia.
# as §1
# Prior treatments targeting other symptoms included the following. The subject had taken tegaserod for irritable bowel syndrome. Additional prior therapies included zolpidem, midazolam, zopiclone, and chlorpheniramine for insomnia.
# [2] = test system: Human Subject Diagnosed with Fibromyalgia; experiment: Treatment of human subjects diagnosed with fibromyalgia with trimetazidine (Vastarel MR 35 mg orally, twice daily); type: in vivo; conditions: for reduction in the widespread pain: subject-reported
# Experimental: (§2) A person presented with long-standing complaints (15 years) of widespread pain—headaches, upper and lower back pain, neck pain, elbow and knee pain bilaterally, calf pain bilaterally and jaw pain. General non-specific symptoms were fatigue, symptoms of irritable bowel syndrome (constipation-type), insomnia, cognitive and memory impairment, morning stiffness, dizziness, irritability and depression.
# Treatment Regime: The subject was administered trimetazidine (modified release formulation, Vastarel® MR), 35 mg orally, twice daily, originally for treatment of their cardiac condition.
# as §2, with “(10” for “(15”, “hip” for “elbow and knee”, “knee” for “calf”, “stiffness,” for “stiffness, dizziness, irritability”
# Treatment Regime: The subject was administered trimetazidine (modified release formulation, Vastarel® MR), 35 mg orally, twice daily.
# A person presented with a 5 year history of complaints of widespread pain headaches, upper and lower back pain, neck pain, hip pain bilaterally and knee pain bilaterally. General non-specific symptoms were fatigue, symptoms of irritable bowel syndrome (constipation-type), insomnia, morning stiffness and emotional liability.
# The following is a synopsis of the clinical response of each of eight (8) patients diagnosed with FMS, each of whom received treatment with trimetazidine MR (Vastarel® MR), 35 mg orally, twice daily, for a period of at least four (4) weeks
# [3] = test system: long-chain fatty acid oxidation; conditions: Kantor et al., Circ. Res. 2000; cited from earlier work
# [4] = test system: glucose oxidation; conditions: Kantor et al., Circ. Res. 2000; cited from earlier work
# [5] = test system: pyruvate dehydrogenase; conditions: Kantor et al., Circ. Res. 2000; cited from earlier work
# [6] = molecular target: long chain 3-ketoacyl CoA thiolase (Rattus norvegicus, UniProt Q60587); conditions: Kantor et al., Circ. Res. 2000; cited from earlier work
# Chain of long chain 3-ketoacyl CoA thiolase (Q60587 35-475): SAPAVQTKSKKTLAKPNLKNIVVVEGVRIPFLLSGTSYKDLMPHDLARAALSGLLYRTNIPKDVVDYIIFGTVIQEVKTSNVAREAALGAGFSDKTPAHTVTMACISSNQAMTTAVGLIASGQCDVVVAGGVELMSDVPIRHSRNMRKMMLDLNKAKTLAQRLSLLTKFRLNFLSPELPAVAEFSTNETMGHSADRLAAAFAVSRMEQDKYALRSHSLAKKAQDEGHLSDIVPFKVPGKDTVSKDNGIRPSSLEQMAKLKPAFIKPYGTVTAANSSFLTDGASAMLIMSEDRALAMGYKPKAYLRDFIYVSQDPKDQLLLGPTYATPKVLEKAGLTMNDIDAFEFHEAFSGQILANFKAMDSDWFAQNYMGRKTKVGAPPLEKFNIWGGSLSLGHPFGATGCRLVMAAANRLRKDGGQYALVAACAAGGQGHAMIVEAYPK
# Chain of long chain 3-ketoacyl CoA thiolase (Q64428 37-763 partner): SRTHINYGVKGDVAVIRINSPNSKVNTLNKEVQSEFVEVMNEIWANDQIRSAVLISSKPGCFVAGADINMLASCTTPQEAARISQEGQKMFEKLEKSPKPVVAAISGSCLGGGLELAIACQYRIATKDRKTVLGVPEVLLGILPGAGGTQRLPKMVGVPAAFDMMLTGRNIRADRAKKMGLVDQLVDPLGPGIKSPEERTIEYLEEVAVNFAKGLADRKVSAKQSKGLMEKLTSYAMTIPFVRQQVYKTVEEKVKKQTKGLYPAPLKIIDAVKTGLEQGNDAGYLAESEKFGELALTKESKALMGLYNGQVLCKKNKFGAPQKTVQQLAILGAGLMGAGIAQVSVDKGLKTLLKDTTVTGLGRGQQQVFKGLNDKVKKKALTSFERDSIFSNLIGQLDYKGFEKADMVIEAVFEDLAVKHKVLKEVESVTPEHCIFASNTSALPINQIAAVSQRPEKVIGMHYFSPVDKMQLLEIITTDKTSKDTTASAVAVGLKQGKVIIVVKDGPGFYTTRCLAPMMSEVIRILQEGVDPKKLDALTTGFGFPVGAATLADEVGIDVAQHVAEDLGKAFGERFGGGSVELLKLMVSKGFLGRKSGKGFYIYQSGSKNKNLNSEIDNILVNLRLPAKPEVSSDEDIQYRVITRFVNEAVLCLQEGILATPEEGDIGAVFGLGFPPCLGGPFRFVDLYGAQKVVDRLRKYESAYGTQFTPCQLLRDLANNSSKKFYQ
# [7] = Example 1, after six (6) months of continuous use
# [8] = Example 4, individual FMS patients, Short Term i.e. within 72 hours
# [9] = Example 4, individual patients, Medium Term i.e. over four (4) weeks
# [10] = Example 4, individual patients, within 72 hours
# [11] = Example 4, person five, within 72 hours
# [12] = Example 4, person four, within 72 hours
# [13] = Example 4, person one, within 72 hours
# [14] = Examples 2 and 3, after four (4) months of continuous use
# [15] = Examples 2 and 3, within 24 hours
smiles,measurement,setting,value
CCOC(=O)C1(c2ccccc2)CCN(C)CC1 [meperidine],"pain relief, prescription analgesics",[1],mild to moderate and very temporary relief
same,"side effects, prescription analgesics",[1],frequently accompanied by unpleasant side effects
CC(=O)Nc1ccc(O)cc1 [paracetamol],"pain relief, OTC analgesics",[1],no pain relief whatsoever; also recorded: negligible pain relief
COc1ccc2c3c1O[C@H]1[C@@H](O)C=C[C@H]4[C@@H](C2)N(C)CC[C@@]341 [codeine],"pain relief, prescription analgesics",[1],mild to moderate and very temporary relief
same,"side effects, prescription analgesics",[1],frequently accompanied by unpleasant side effects
same,"pain relief, OTC analgesics",[1],no pain relief whatsoever; also recorded: negligible pain relief
"COc1ccc(CN2CCNCC2)c(OC)c1OC [trimetazidine, 1-(2,3,4-trimethyloxybenzyl)piperazine]",time at which benefits were first noticed after commencing therapy,"[2]; Example 1, person, 35 mg orally twice daily",≤ 24 h
same,improvement in all symptoms and signs of fibromyalgia,"[2]; Example 1, person, 35 mg orally twice daily, within 72 hours of starting treatment",vast improvement
same,reduction in the widespread pain,"[2]; Example 1, person, within 72 hours",90%
same,episodes of pain at trigger points at follow-up,[2]; [7],infrequent
same,quality of life at follow-up,[2]; [7],same marked improvement
same,clarity of thoughts,"[2]; Example 1, within 72 hours",markedly increased
same,energy levels,"[2]; Example 1, within 72 hours",very significantly increased
same,level of irritability,"[2]; Example 1, within 72 hours",markedly reduced
same,mood,"[2]; Example 1, within 72 hours",very improved
same,regularity of bowel habits,"[2]; Example 1, within 72 hours",markedly improved
same,residual pain,"[2]; Example 1, within 72 hours",minimal residual pain reported at the left medial knee
same,short and long term memory,"[2]; Example 1, within 72 hours",improvement
same,sleep patterns,"[2]; Example 1, within 72 hours",very significantly improved
same,clarity of thoughts,"[2]; Example 2, within 24 hours",markedly increased
same,short and long term memory,"[2]; Example 2, within 24 hours",improvement
same,reduction in widespread pain,[2]; [8],90% reduction in
same,reduction in widespread pain and trigger point pain,[2]; [8],90% reduction in
same,affect (EXAMINATION FINDINGS; patient: affect and energy levels),"[2]; Example 4, individual patients",markedly improved
same,resolution of trigger point tenderness (EXAMINATION FINDINGS),"[2]; Example 4, individual patients",Sustained
same,Residual symptoms,[2]; [9],include mild acid; also recorded: infrequent headaches; also recorded: insomnia; also recorded: episodes of joint
same,sense of well-being,[2]; [9],increased sense of
same,specific complaints,[2]; [9],symptoms with no
same,Energetic feeling,[2]; [10],Energetic feeling
same,Nausea (patient: Nausea and Vomiting),[2]; [10],Absence of Nausea
same,alertness and clarity of thinking,[2]; [10],Increased alertness
same,dizziness/dizzy spells,[2]; [10],Infrequent dizzy; also recorded: Absence of
same,improved mood and concentration,[2]; [10],Significantly
same,improved mood and memory,[2]; [10],Significantly
same,reduction in feeling of generalized tightness and stiffness of muscles,[2]; [10],90% reduction in (2×) and 90% reduction of
same,sleep,[2]; [10],Consistent restful
same,improved energy levels (EXAMINATION FINDINGS),"[2]; Example 4, person five",Markedly
same,reduction in irritability,[2]; [11],90% reduction in
same,reduction in symptoms of Irritable Bowel Syndrome,[2]; [11],90% reduction in
same,Memory,[2]; [12],Improved Memory
same,Nervousness,[2]; [12],No Nervousness
same,improvement in physical appearance (EXAMINATION FINDINGS),"[2]; Example 4, person one",obvious marked
same,increase in energy levels,"[2]; Example 4, person one, after four (4) weeks of daily use",particular a sustained
same,Chest Pain,[2]; [13],Absence of Chest
same,symptoms of Irritable Bowel Syndrome,[2]; [13],Markedly reduced
same,sustained improvement of symptoms,"[2]; Example 4, person three, after four (4) months of daily use",95% sustained
same,reduction in IBS and Acid Reflux Symptoms,"[2]; Example 4, person three, within 72 hours",90% reduction in
same,sustained improvement of symptoms,"[2]; Example 4, person two, after seven (7) weeks of daily use",dramatic 95%
same,reduction in severity of Pre-Menstrual Cramps,"[2]; Example 4, person two, within 72 hours",70% reduction in
same,sustained improvement of all symptoms,"[2]; Example 4, person, after five (5) weeks of daily use",95% sustained
same,sustained improvement of symptoms,"[2]; Example 4, person, after six (6) weeks of daily use",(95%) sustained
same,sustained improvement of symptoms,"[2]; Example 4, after four (4) weeks of daily use",95% sustained and 90% sustained
same,improvement in all symptoms and signs of fibromyalgia,"[2]; Examples 2 and 3, single female patients, 35 mg orally twice daily, within 24 hours of starting treatment",vast improvement
same,reduction in the widespread pain,"[2]; Examples 2 and 3, single female patients, within 24 hours",95%
same,quality of life at follow-up,[2]; [14],same marked improvement
same,relapse of symptoms,[2]; [14],no relapse
same,energy levels,[2]; [15],very significantly increased
same,mood,[2]; [15],very improved
same,regularity of bowel habits,[2]; [15],markedly improved
same,residual pain,[2]; [15],minimal residual pain reported at the left hip; also recorded: residual mild headache
same,sleep patterns,[2]; [15],very significantly improved
same,reduction in widespread pain,"[2]; FMS patients, course of treatment of at least four weeks",remarkable and measurable reduction
same,sustained or improved relief of widespread pain at follow-up,"[2]; all patients, follow-up at either four months or four weeks of treatment",90-95%
same,improvement of minor symptoms,"[2]; all patients, within 72 hours",significant improvement
same,improvement in widespread pain,"[2]; eleven human subjects, each",remarkable improvement
same,"reduction in widespread pain, and where applicable, tender point pain","[2]; eleven human subjects, each, within 72 hours of commencement of treatment",marked reduction
same,"reduction in widespread pain, on average","[2]; eleven human subjects, within 72 hours of commencing treatment",90%
same,long-chain fatty acid oxidation,[3],inhibits
same,glucose oxidation,[4],stimulates
same,levels of pyruvate dehydrogenase,[5],increased levels
same,activity of long chain 3-ketoacyl CoA thiolase,[6],decreased activity
COc1cccc(C2(O)CCCCC2CN(C)C)c1 (centres unmarked) [tramadol],"pain relief, prescription analgesics",[1],mild to moderate and very temporary relief
same,"side effects, prescription analgesics",[1],frequently accompanied by unpleasant side effects
CCN(CC)CC(=O)Nc1c(C)cccc1C [lidocaine],"localized pain relief, trigger point injections",[1]; Examples 1 and 2,the best localized pain relief
